According to patent publication US20090036444A1, “5-5-Membered fused heterocyclic compound and use thereof as HCV polymerase inhibitor” (priority 2003, published 2009):
pIC50: −log10 of the molar value. Counter-ions that a name gives are not always drawn. Like-named read-outs stand apart in the source and are kept apart here.

Key:
[1] = target: T1, HCV polymerase H544 1a 3X (UniProt P27958); experiment: Assay of enzyme (HCV polymerase) inhibitory activity, H544 1a 3X; format: biochemical
T1 construct: fused on or other part: 6 His tag at the C-terminus, for the BK (1b) enzyme

[2] = target: T2, HCV polymerase H544 1b 3X (Hepatitis C virus genotype 1b, UniProt P26663); experiment: Assay of enzyme (HCV polymerase) inhibitory activity, H544 1b 3X; format: biochemical, HCV BK strain
T2 construct: a region encoding NS5B (J Virol 1991 March, 65(3), 1105-13, 544 amino acids after deletion of 47 amino acids on the C-terminal); 6 His (C); made in house; host or cells: Escherichia coli
Excerpt: The evaluation of the HCV polymerase inhibitory activity of the compound of the present invention is explained in the following. This polymerase is an enzyme coded for by the non-structural protein region called NS5B on the genome RNA of HCV (EMBO J., 15:12-22, 1996).
Using, as a template, a cDNA clone corresponding to the full length genome RNA of HCV BK strain obtained from the blood of a patient with hepatitis C, a region encoding NS5B (J Virol 1991 March, 65(3), 1105-13, 544 amino acids after deletion of 47 amino acids on the C-terminal) was amplified by PCR. The objective gene was prepared by adding a 6 His tag {base pair encoding 6 continuous histidine (His)} to the 3′ end thereof and transformed to Escherichia coli. The Escherichia coli capable of producing the objective protein was cultured. The obtained cells were suspended in a buffer solution and crushed in a microfluidizer. The supernatant was obtained by centrifugation and applied to various column chromatographys {mono-S, Sephacryl S-200 (Pharmacia)}, inclusive of metal chelate chromatography, to give a standard enzyme product.
Using a synthetic primer designed based on the sequence of HCV genomic 3′ untranslated region, a DNA fragment (148 bp) containing polyU and 3′X sequence was entirely synthesized and cloned into plasmid pBluescript SK II (+) (Stratagene). The cDNA encoding full length NS5B, which was prepared in i) above, was digested with restriction enzyme KpnI to give a cDNA fragment containing the nucleotide sequence of from the restriction enzyme cleavage site to the termination codon. This cDNA fragment was inserted into the upstream of 3′ untranslated region of the DNA in pBluescript SK II(+) and ligated. The about 450 bp inserted DNA sequence was used as a template in the preparation of substrate RNA. This plasmid was cleaved immediately after the 3′X sequence, linearized and purified by phenol-chloroform treatment and ethanol precipitation to give DNA.
RNA was synthesized (37° C., 3 hr) by run-off method using this purified DNA as a template, a promoter of pBluescript SK II(+), MEGAscript RNA synthesis kit (Ambion) and T7 RNA polymerase. DNase I was added and the mixture was incubated for 1 hr. The template DNA was removed by decomposition to give a crude RNA product. This crude product was treated with phenol-chloroform and purified by ethanol precipitation to give the objective substrate RNA.
This RNA was applied to formaldehyde denaturation agarose gel electrophoresis to confirm the quality thereof and preserved at −80° C.
A test substance (compound of the present invention) and a reaction mixture (30 μl) having the following composition were reacted at 25° C. for 90 min. 10% Trichloroacetic acid at 4° C. and 1% sodium pyrophosphate solution (150 μl) were added to this reaction mixture to stop the reaction. The reaction mixture was left standing in ice for 15 min to insolubilize RNA. This RNA was trapped on a glass filter (Whatman GF/C and the like) upon filtration by suction. This filter was washed with a solution containing 1% trichloroacetic acid and 0.1% sodium pyrophosphate, washed with 90% ethanol and dried. A liquid scintillation cocktail (Packard) was added and the radioactivity of RNA synthesized by the enzyme reaction was measured on a liquid scintillation counter.
The HCV polymerase inhibitory activity (IC50) of the compound of the present invention was calculated from the values of radioactivity of the enzyme reaction with and without the test substance.
The results are shown in Table 18, wherein each symbol means that IC50 falls within the following range.
Reaction mixture: HCV polymerase (0.5 μg/ml) obtained in i), substrate RNA (5 μg/ml) obtained in ii), ATP (50 μM), GTP (50 μM), CTP (50 μM), UTP (2 μM), [5,6-^3H] UTP (46 Ci/mmol (Amersham), 1 μCi) 20 mM Tris-HCl (pH 7.5), EDTA (1 mM), MgCl2 (5 mM), NaCl (50 mM), DTT (1 mM), BSA (0.01%)

[3] = 25° C., 90 min, [5,6-3H]UTP incorporation, read-out: H544 1a 3X IC50
[4] = read-out: H544 1a 3X IC50, 25° C., 90 min, [5,6-3H]UTP incorporation

T2 sequence (P26663 2420-2963): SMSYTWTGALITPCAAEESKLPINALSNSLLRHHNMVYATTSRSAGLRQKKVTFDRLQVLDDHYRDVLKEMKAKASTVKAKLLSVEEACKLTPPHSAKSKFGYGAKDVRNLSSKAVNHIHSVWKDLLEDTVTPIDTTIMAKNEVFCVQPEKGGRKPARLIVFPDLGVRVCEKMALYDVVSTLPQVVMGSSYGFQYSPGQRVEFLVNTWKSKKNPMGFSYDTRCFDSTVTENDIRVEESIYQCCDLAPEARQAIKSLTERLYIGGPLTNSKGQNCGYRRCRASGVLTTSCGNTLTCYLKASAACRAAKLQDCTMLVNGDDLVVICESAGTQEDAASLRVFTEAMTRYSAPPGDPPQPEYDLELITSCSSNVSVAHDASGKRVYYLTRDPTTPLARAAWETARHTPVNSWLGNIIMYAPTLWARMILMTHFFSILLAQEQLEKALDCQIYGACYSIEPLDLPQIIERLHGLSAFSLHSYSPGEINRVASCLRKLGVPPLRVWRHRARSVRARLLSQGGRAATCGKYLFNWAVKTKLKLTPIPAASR

| SMILES | pIC50 [1, 3] | pIC50 [2] | pIC50 [1, 4] |
| --- | --- | --- | --- |
| CC(=O)N(C)c1ccc(N2CCN(S(C)(=O)=O)CC2)c(COc2ccc(-c3c(C4CCCCC4)c4sc(C(=O)O)cc4n3C)cc2)c1 [Example 20, 5-{4-[5-(N-acetyl-N-methylamino)-2-(4-methanesulfonylpiperazin-1-yl)benzyloxy]phenyl}-6-cyclohexyl-4-methyl-4H-thieno[3,2-b]pyrrole-2-carboxylic acid hydrochloride] | > 7.00 | > 7.00 | – |
| CN(CC(=O)N1CCCCC1)C(=O)Cn1c(-c2ccc(OCc3ccccc3)cc2)c(C2CCCCC2)c2sc(C(=O)O)cc21 [Example 50, 5-(4-benzyloxyphenyl)-6-cyclohexyl-4-{[N-methyl-N-(2-oxo-2-piperidinoethyl)carbamoyl]methyl}-4H-thieno[3,2-b]pyrrole-2-carboxylic acid] | > 7.00 | > 7.00 | – |
| Cn1c(-c2ccc(OCc3ccc(N4CCCC4=O)cc3N3CCOCC3)cc2)c(C2CCCCC2)c2sc(C(=O)O)cc21 [Example 34, 6-cyclohexyl-4-methyl-5-{4-[2-morpholino-4-(2-oxopyrrolidin-1-yl)benzyloxy]phenyl}-4H-thieno[3,2-b]pyrrole-2-carboxylic acid hydrochloride] | > 7.00 | > 7.00 | – |
| Cn1c(-c2ccccc2OCc2ccccc2)c(C2CCCCC2)c2sc(C(=O)O)cc21 [Example 35, 5-(2-benzyloxyphenyl)-6-cyclohexyl-4-methyl-4H-thieno[3,2-b]pyrrole-2-carboxylic acid] | 6.00 to 7.00 | 6.00 to 7.00 | – |
| CC(C)(C)NC(=O)Cn1c(-c2ccc(OCc3ccccc3)cc2)c(C2CCCCC2)c2sc(C(=O)O)cc21 [Example 44, 5-(4-benzyloxyphenyl)-4-(tert-butylcarbamoylmethyl)-6-cyclohexyl-4H-thieno[3,2-b]pyrrole-2-carboxylic acid] | 6.00 to 7.00 | 6.00 to 7.00 | – |
| O=C(O)c1cc2c(s1)c(C1CCCCC1)c(-c1ccc(OCc3ccccc3)cc1)n2CCN1CCC(N2CCCCC2)CC1 [Example 55, 5-(4-benzyloxyphenyl)-4-[2-(1,4′-bipiperidinyl-1′-yl)ethyl]-6-cyclohexyl-4H-thieno[3,2-b]pyrrole-2-carboxylic acid dihydrochloride] | 6.00 to 7.00 | 6.00 to 7.00 | – |
| Cn1c(-c2ccc(OCc3cc(NC(=O)CN4CCOCC4)ccc3N3CCOCC3)cc2)c(C2CCCCC2)c2sc(C(=O)O)cc21 [Example 41, 6-cyclohexyl-4-methyl-5-{4-[2-morpholino-5-(2-morpholinoacetylamino)benzyloxy]phenyl}-4H-thieno[3,2-b]pyrrole-2-carboxylic acid dihydrochloride] | – | > 7.00 | > 7.00 |
| CC(C)C(=O)N(C)c1ccc(N2CCOCC2)c(COc2ccc(-c3c(C4CCCCC4)c4sc(C(=O)O)cc4n3C)cc2)c1 [Example 30, 6-cyclohexyl-5-{4-[5-(N-isobutyryl-N-methylamino)-2-morpholinobenzyloxy]phenyl}-4-methyl-4H-thieno[3,2-b]pyrrole-2-carboxylic acid hydrochloride] | > 7.00 | > 7.00 | – |
| CC(C(=O)N(C)c1ccc(N2CCOCC2)cc1)n1c(-c2ccc(OCc3ccccc3)cc2)c(C2CCCCC2)c2sc(C(=O)O)cc21 (stereo not drawn) [Example 60, 5-(4-benzyloxyphenyl)-6-cyclohexyl-4-{1-[N-methyl-N-(4-morpholinophenyl)carbamoyl]ethyl}-4H-thieno[3,2-b]pyrrole-2-carboxylic acid hydrochloride] | – | 6.00 to 7.00 | – |
| COc1ccc(-c2c(C3CCCCC3)c3sc(C(=O)O)cc3n2CC(=O)N(C)C)cc1 [Example 21, 6-cyclohexyl-4-dimethylcarbamoylmethyl-5-(4-methoxyphenyl)-4H-thieno[3,2-b]pyrrole-2-carboxylic acid] | 6.00 to 7.00 | > 7.00 | – |
| CN(CCN1CCCCC1)CCn1c(-c2ccc(OCc3ccccc3)cc2)c(C2CCCCC2)c2sc(C(=O)O)cc21 [Example 59, 5-(4-benzyloxyphenyl)-6-cyclohexyl-4-{2-[N-methyl-N-(2-piperidinoethyl)amino]ethyl}-4H-thieno[3,2-b]pyrrole-2-carboxylic acid dihydrochloride] | – | > 7.00 | 6.00 to 7.00 |
| COc1ccc(-c2c(C3CCCCC3)c3sc(C(=O)O)cc3n2CC(=O)NCc2ccccc2)cc1 [Example 32, 4-(benzylcarbamoylmethyl)-6-cyclohexyl-5-(4-methoxyphenyl)-4H-thieno[3,2-b]pyrrole-2-carboxylic acid] | > 7.00 | > 7.00 | – |
| CN(CCN1CCOCC1)CCn1c(-c2ccc(OCc3ccccc3)cc2)c(C2CCCCC2)c2sc(C(=O)O)cc21 [Example 58, 5-(4-benzyloxyphenyl)-6-cyclohexyl-4-{2-[N-methyl-N-(2-morpholinoethyl)amino]ethyl}-4H-thieno[3,2-b]pyrrole-2-carboxylic acid dihydrochloride] | – | 6.00 to 7.00 | 6.00 to 7.00 |
| COc1ccc(-c2c(C3CCCCC3)c3sc(C(=O)O)cc3n2CC(=O)NC(C)(C)C)cc1 [Example 33, 4-(tert-butylcarbamoylmethyl)-6-cyclohexyl-5-(4-methoxyphenyl)-4H-thieno[3,2-b]pyrrole-2-carboxylic acid] | > 7.00 | 6.00 to 7.00 | – |
| CN(C)C(=O)Cn1c(-c2ccc(Oc3ccccc3)cc2)c(C2CCCCC2)c2sc(C(=O)O)cc21 [Example 42, 6-cyclohexyl-4-dimethylcarbamoylmethyl-5-(4-phenoxyphenyl)-4H-thieno[3,2-b]pyrrole-2-carboxylic acid] | > 7.00 | > 7.00 | – |
| CN(C)C(=O)Cn1c(-c2ccc(OCc3ccccc3N3CCOCC3)cc2)c(C2CCCCC2)c2sc(C(=O)O)cc21 [Example 38, 6-cyclohexyl-4-dimethylcarbamoylmethyl-5-[4-(2-morpholinobenzyloxy)phenyl]-4H-thieno[3,2-b]pyrrole-2-carboxylic acid] | > 7.00 | > 7.00 | – |
| O=C(O)c1cc2c(s1)c(C1CCCCC1)c(-c1ccc(OCc3ccccc3)cc1)n2CC(=O)N1CCN(C2CCCCC2)CC1 [Example 52, 5-(4-benzyloxyphenyl)-6-cyclohexyl-4-[2-(4-cyclohexylpiperazin-1-yl)-2-oxoethyl]-4H-thieno[3,2-b]pyrrole-2-carboxylic acid hydrochloride] | > 7.00 | > 7.00 | – |
| CN(C)C(=O)Cn1c(-c2ccccc2OCc2ccccc2)c(C2CCCCC2)c2sc(C(=O)O)cc21 [Example 36, 5-(2-benzyloxyphenyl)-6-cyclohexyl-4-dimethylcarbamoylmethyl-4H-thieno[3,2-b]pyrrole-2-carboxylic acid] | 6.00 to 7.00 | 6.00 to 7.00 | – |
| CC(=O)N(C)c1ccc(N2CCOCC2)c(COc2ccc(-c3c(C4CCCCC4)c4sc(C(=O)O)cc4n3C)cc2)c1 [Example 17, 5-{4-[5-(N-acetyl-N-methylamino)-2-morpholinobenzyloxy]phenyl}-6-cyclohexyl-4-methyl-4H-thieno[3,2-b]pyrrole-2-carboxylic acid hydrochloride] | – | > 7.00 | > 7.00 |
| CN(C)CCn1c(-c2ccc(OCc3ccccc3)cc2)c(C2CCCCC2)c2sc(C(=O)O)cc21 [Example 46, 5-(4-benzyloxyphenyl)-6-cyclohexyl-4-(2-dimethylaminoethyl)-4H-thieno[3,2-b]pyrrole-2-carboxylic acid] | 6.00 to 7.00 | 6.00 to 7.00 | – |
